The subject of one series is tumour cells. The conditions noted are these: both in vitro and in vivo; cited from earlier work.
For series [1] the following is noted: cited from earlier work.
For another series, the system named is pMAP38. Nature of the series: Western blot of phosphorylated MAP38 in COLO201. Type of series: cell-based. The conditions noted are these: COLO201, 72 h of treatment. For orientation: A western blot detects proteins with antibodies after separation by electrophoresis.
A further series addresses T1, CLIC1 (Homo sapiens, UniProt O00299).
T1 construct: expressed in transfected cells; host or cells: HEK cells
Nature of the series: Whole-cell patch clamp on HEK cells transfected with CLIC1 plasmid. Type of series: cell-based. The settings on record: HEK cells overexpressing CLIC1; voltage steps from −60 to +80 mV; IAA94 50 μM. On the procedure:
FIG. 17. Current/voltage relationship of CLIC1 membrane current in whole-cell patch clamp experiments. HEK cells were transfected with CLIC1 plasmid to overexpress the CLIC1 protein. After recording control current (filled cycles; n=5) cells were perfused alternatively with the polyclonal antibody (open triangles; n=7), tmCLIComab (inverse open triangles; n=10) and with 50 μM IAA94 (filled squared; n=11). The whole cells current is expressed as a current density.
The reference sequence of the CLIC1 protein used in the experiments described in the present patent application is filed at UniProt under number UniProtKB—000299 (CLIC1 human), and described in the article Harrop S. J. et al., “Crystal structure of a soluble form of the intracellular chloride ion channel CLIC1 (NCC27) at 1.4-Å Resolution”; The Journal of Biological Chemistry, Vol. 276 No. 48, November 30, pp. 44993-45000 (2001).
The potential was set on the basis of the resting potential of each cell (between 0 and −80 mV). The CLIC1-mediated chlorine currents were isolated from other ion currents by mathematical subtraction of the residual current following perfusion of 100 μM IAA94 dissolved in the external solution.
On the technique in general: The patch-clamp technique gives a direct electrical read-out from membranes.

Series [2] deals with human glioblastoma cells. As to the kind of experiment: ROS production in human glioblastoma cells in primary culture. The series is classed as cell-based. On the procedure:
In the subsequent functional experiment, ROS production was measured over time. The graph in FIG. 11 relates to the acquisition of fluorescence signals proportional to the amount of cytoplasmic ROS in glioblastoma cells. The cells were treated with both the antibody and the tmCLIC1 channel blocker.

Series [3] deals with COLO201. Nature of the series: Trans well migration and invasion assay. Type of series: cell-based. The conditions noted are these: COLO201 WT, 72 h. The method, then: The overexpression of tmCLIC1 in the most aggressive cell lines of colorectal cancer and its pivotal role in regulation of cell cycle progression and proliferation, opens a question on the function of tmCLIC1 activity on migration and invasion potential of CRCs, that makes colorectal cancer still uncurable. We performed a Trans well assay to understand whether CLIC1 impairment could affect the migration and invasion potential of COLO201. Cells were plated after 60 hours of serum deprivation on a porous membrane, permeable only to growth factor, in contact to complete medium. The resulting chemo-attractant gradient leads the migrative cells to cross the membranes that are then stained with DAPI to visualize the nuclei. […] For invasion assays, we coated with Matrigel the porous membrane to mimic the extracellular matrix that cells must disrupt to invade tissues and mucosa.
Cells were plated after 60 hours of serum deprivation on a […] porous membrane, permeable only to growth factor, in contact to complete medium. Membranes were cut, stained with DAPI dye, and included with mowiol. Cover glasses were examined under Zeiss Examiner A1 fluorescence microscope with a Zeiss 40×/0.75 NA water immersion lens.

For series [4], the system named is human glioblastoma cells. As to the kind of experiment: Growth curves of human glioblastoma cells in primary culture. Type of series: cell-based. The settings on record: glioblastoma cells, FIG. 9. The text has this: The primary glioblastoma cell lines, already tested for stem cell properties and carcinogenicity, were kindly supplied by Professor T. Florio's laboratory at Genoa University (Genoa, Italy). The cells were obtained from a surgical biopsy performed in the Neurosurgery Department of IRCCS-AOU San Martino IST (Genoa, Italy), from patients who had not received any treatment before the operation. The samples were histologically classified as GB grade IV (according to the WHO classification), and were used after obtaining the patients' informed consent and the approval of the Institutional Ethics Committee (IEC). The cells were cultured in stem cell-permissive medium consisting of Dulbecco's Modified Eagle's Medium (DMEM) and F12-GlutaMAX at the ratio of 1:1, supplemented with 1×B27 (Thermo Fisher Scientific), […] of fibroblast growth factor (FGF, Miltenyi Biotec), […] of human epidermal growth factor (EGF, Miltenyi Biotec) and 1% penicillin/streptomycin (Pen/Strep, […]) (Thermo Fisher Scientific).
The cells were seeded in 24-well plates (20,000 cells/well) and counted after 24, 48, 72 and 96 hours to construct the growth curve. The cells were collected and centrifuged, and the resuspended pellet was diluted 1:1 with Trypan Blue. An automated counter (Countess II, Thermo Fisher Scientific) was used to count the cells. All data were normalized to their controls.

In series [5] the test system is COLO201. As to the kind of experiment: COLO201 spheroids, 3D culture. The series is classed as cell-based. The settings on record: treated 24 to 96 hours, area normalized on initial area. On the procedure: To evaluate whether tmCLIC1omab is able to penetrate across tumor spheroids, a 3D culture was performed. After the complete formation of spheroids, treatments were added and the area was measured every 24 hours up to 96 hours. The area at each time point was then normalized on the initial spheroids' area.
Spheroids were formed with hanging-drop method and then plated in rounded 96 plates coated with 5% of agar. After the complete formation of spheroids, treatments were added and the area was measured every 24 hours up to 96 hours. The area at each time point was then normalized on the initial spheroids' area.

The test system of series [6] is Metalloproteinase 7 (MMP7). As to the kind of experiment: Western blot of Metalloproteinase 7 in COLO201. The series is classed as cell-based. The settings on record: COLO201, 72 h of treatment.
The target of a further series is T2, tmCLIC1 ion channel (Mus musculus, UniProt Q9Z1Q5).
T2 construct: endogenous in cells; host or cells: BV-2 mouse microglial cell line
Nature of the series: Whole-cell patch clamp on BV2 microglial cells with β-amyloid. Type of series: cell-based, mice. The settings on record: blocker perfused after tmCLIC1omab. The text has this: The microglial cells used (BV-2) originated from an immortalised cell line deriving from C57BL/6 mice and commonly marketed. The culture medium used was RPMI (Thermo Fisher Scientific) with the addition of 10% FBS (Euroclone) and 1% Pen/Strep ([…], Thermo Fisher Scientific).
The microelectrodes were obtained from borosilicate capillaries with a diameter of 1.5 mm. Micropipettes were produced with a P-97 Brown-Flaming puller (Sutter Instruments, Novato, CA), with which the capillaries were forged to a tip diameter of 1-1.5 μm and electrical resistance of 5-8 MΩ.
The perforated patch clamp configuration was used for the whole-cell experiments, employing the antibiotic gramicidin (final concentration in pipette 5 μg/ml) which forms pores in the membrane that are only permeable to monovalent cations; in this way, the cytoplasmic concentration of the chloride ion remains unchanged throughout the experiment. The ion currents were digitised at 5 kHz and filtered at 1 kHz. Clampex 9.2 was used as the data acquisition and analysis programme.
In the time-course experiments, the potential was set on the basis of the resting potential of each cell, and a voltage step of +60 mV was applied every 5 seconds. The current measured is that observed at the end of the voltage step lasting 800 ms. When the amplitude of the current reaches a constant value, the antibody and IAA94 are added in sequence. […]

Entries after “also recorded” stand apart in the source; their conditions may differ.

Consider `C[C@]1(C2CCCC2)Cc2cc(OCC(=O)O)c(Cl)c(Cl)c2C1=O` [IAA94, R(+)-[(6,7-dichloro-2-cyclopentyl-2,3-dihydro-2-methyl-1-oxo-1H-inden-5-yl)-oxy]acetic acid, reference compound], for which the “proliferation of the tumour cells” value in the series on tumour cells was “drastic slowing”. For the same molecule, the “usability in vivo / side effects” value in series [1] is on record as “unusable in vivo for its side effects”. Further, the “expression of pMAP38” value in the series with pMAP38 is recorded as “downregulated”. For the same molecule, on CLIC1, the “inhibition of CLIC1 ionic whole-cell current” value is given as “maximum inhibition”. The “fall in ROS production” value in the series on human glioblastoma cells [2] (FIG. 11 legend, versus control) was “about fourfold”. Besides, the “reduction of the slope of the ROS increase curve” value in the series on human glioblastoma cells [2] (fluorescence signals proportional to cytoplasmic ROS) was “about fivefold”. Also, the “migration (number of migrative nuclei) versus control” value in the series on COLO201 [3] is “significant lower number of migrative nuclei”. Moreover, in the series on COLO201 [3] (Matrigel-coated membrane), the “invasion (number of invasive nuclei) versus control” value is reported as “the same behavior seen for migration assay”. Moreover, the “growth rate compared with Clic1−/− knockout cells” value with human glioblastoma cells [4] is given as “the same growth rate”. Moreover, in the series on COLO201 [5], the “spheroids' area / proliferation of spheroids versus control” value is “significantly smaller compared to the control from 48 h; also recorded: impair proliferation of spheroids significantly after 48 hours”. Besides, the “expression of Metalloproteinase 7” value in [6] is given as “mainly abolished”. At tmCLIC1 ion channel, the “further decrease in membrane current after antibody treatment” value was “only generates a minimal decrease in current”.

The values are drawn from patent publication US20240002499A1, “ANTI-CLIC1 PROTEIN ANTIBODIES AND THE DIAGNOSTIC AND THERAPEUTIC USES THEREOF” (Universita' Degli Studi di Milano, priority 2020, published 2024).
